“And” between values parts separate entries of the source, which are not always exact repeats. Equal values may be shown once. Read-outs that look alike come from different tables or passages of the source.
Test: PK profiles after IV and PO administration to BALB/c mice
Format: in vivo
Conditions: for MRT last: read-out: MRT(0-t); for MRT inf: read-out: MRT(0-∞)
Description: The pharmacokinetics and oral bioavailability of Compound 42 were investigated in mice following single intravenous (IV) injection and oral administration (PO).

[1] = BALB/c, mouse, blood, po, 20 mg/kg, PO 20.0 mg/kg, individual animals
[2] = BALB/c, mouse, blood, po, 20 mg/kg, PO 20.0 mg/kg, mean n=3
[3] = IV 5.0 mg/kg, individual animals, 5 mg/kg
[4] = PO 20.0 mg/kg, individual animals, 20 mg/kg

concentration at 6 h (BALB/c, mouse, blood, po, 20 mg/kg, PO 20 mg/kg, 6.00 h, mean, read-out: concentration in blood, Mean PO): 111 ng/mL | concentration at 24 h (BALB/c, mouse, blood, po, 20 mg/kg, PO 20 mg/kg, 24.00 h, individual animals 201-203, read-out: concentration in blood): 39 ng/mL | concentration at 24 h (BALB/c, mouse, blood, po, 20 mg/kg, PO 20 mg/kg, 24.00 h, mean, read-out: concentration in blood, Mean PO): 42.4 ng/mL | AUC(0-t) (BALB/c, mouse, blood, po, 20 mg/kg, PO 20.0 mg/kg, individual animals, read-out: AUC(0-t)): 2100 ng·h/mL | AUC(0-inf) (BALB/c, mouse, blood, po, 20 mg/kg, PO 20.0 mg/kg, individual animals, read-out: AUC(0-∞)): 2750 ng·h/mL | Cmax (BALB/c, mouse, blood, po, 20 mg/kg, PO 20.0 mg/kg, individual animals, read-out: Cmax): 211 ng/mL | MRT last [1]: 7.66 h | MRT inf [1]: 15.5 h | half-life (BALB/c, mouse, blood, po, 20 mg/kg, PO 20.0 mg/kg, individual animals, read-out: T1/2 (converted)): 11.6 h | AUC(0-t) (BALB/c, mouse, blood, po, 20 mg/kg, PO 20.0 mg/kg, mean n=3, read-out: AUC(0-t)): 2320 ng·h/mL | AUC(0-inf) (BALB/c, mouse, blood, po, 20 mg/kg, PO 20.0 mg/kg, mean n=3, read-out: AUC(0-∞)): 3030 ng·h/mL | Cmax (BALB/c, mouse, blood, po, 20 mg/kg, PO 20.0 mg/kg, mean n=3, read-out: Cmax): 225 ng/mL | MRT last [2]: 7.64 h | MRT inf [2]: 15.4 h | half-life (BALB/c, mouse, blood, po, 20 mg/kg, PO 20.0 mg/kg, mean n=3, read-out: T1/2 (converted)): 11.6 h | AUC(0-inf) (BALB/c, mouse, blood, po, 20 mg/kg, PO administration of 20 mpk, read-out: AUC∞): 3030 ng·h/mL | Cmax (BALB/c, mouse, blood, po, 20 mg/kg, PO administration of 20 mpk, read-out: Cmax): 224 ng/mL | half-life (BALB/c, mouse, blood, po, 20 mg/kg, PO administration of 20 mpk, read-out: half-life (converted)): 11.6 h | Tmax (BALB/c, mouse, blood, IV 5.0 mg/kg, mean n=3): 0.083 h | Tmax (BALB/c, mouse, blood, PO 20.0 mg/kg, individual animals): 1 h | concentration in blood (IV 5 mg/kg, 0.083 h, individual animals 101-103, 5 mg/kg): 2724.650 ng/mI and 2922.650 ng/mI | concentration in blood (IV 5 mg/kg, 0.25 h, individual animals 101-103, 5 mg/kg): 1228.390 ng/mI and 1506.240 ng/mI | concentration in blood (IV 5 mg/kg, 0.50 h, individual animals 101-103, 5 mg/kg): 741.777 ng/mI and 916.427 ng/mI | concentration in blood (IV 5 mg/kg, 1.00 h, individual animals 101-103, 5 mg/kg): 319.272 ng/mI and 350.728 ng/mI | concentration in blood (IV 5 mg/kg, 4.00 h, individual animals 101-103, 5 mg/kg): 129.441 ng/mI and 94.754 ng/mI | concentration in blood (IV 5 mg/kg, 24.00 h, individual animals 101-103, 5 mg/kg): 45.260 ng/mI and 30.044 ng/mI | AUCINF_obs AUC(0-∞) [3]: 4161.11 ng·h/mL and 3533.38 ng·h/mL | AUClast AUC(0-t) [3]: 3542.76 ng·h/mL and 3195.55 ng·h/mL | C0 [3]: 4048.20 ng/mL and 4063.09 ng/mL | Cl_obs Cl [3]: 20.0267 mL/min/kg and 23.5847 mL/min/kg | Cmax [3]: 2724.65 ng/mL and 2922.65 ng/mL | HL_Lambda_z T1/2 [3]: 9.47 h and 7.79 h | MRTINF_obs MRT(0-∞) [3]: 9.83 h and 6.90 h | MRTlast MRT(0-t) [3]: 4.97 h and 3.90 h | Vss_obs Vss [3]: 11.80918 L/kg and 9.76009 L/kg | Vz_obs Vz [3]: 16.41627 L/kg and 15.912 L/kg | concentration in blood (PO 20 mg/kg, 0.25 h, individual animals 201-203, 20 mg/kg): 114.648 ng/mI and 79.841 ng/mI | concentration in blood (PO 20 mg/kg, 0.50 h, individual animals 201-203, 20 mg/kg): 164.520 ng/mI and 165.563 ng/mI | concentration in blood (PO 20 mg/kg, 1.00 h, individual animals 201-203, 20 mg/kg): 232.437 ng/mI and 230.000 ng/mI | concentration in blood (PO 20 mg/kg, 3.00 h, individual animals 201-203, 20 mg/kg): 155.307 ng/mI and 179.295 ng/mI | concentration in blood (PO 20 mg/kg, 6.00 h, individual animals 201-203, 20 mg/kg): 123.919 ng/mI and 111.651 ng/mI | concentration in blood (PO 20 mg/kg, 24.00 h, individual animals 201-203, 20 mg/kg): 37.325 ng/mI and 50.885 ng/mI | AUC(0-t) [4]: 2406.25 ng·h/mL and 2448.08 ng·h/mL | AUC(0-∞) [4]: 2959.50 ng·h/mL and 3385.50 ng·h/mL | Cmax [4]: 232.44 ng/mL and 230.00 ng/mL | F [4]: 15.87% and 18.22% and 18.54% | MRT(0-t) [4]: 7.22 h and 8.04 h | MRT(0-∞) [4]: 13.12 h and 17.56 h | T1/2 [4]: 10.27 h and 12.77 h | F (PO 20.0 mg/kg, mean n=3): 17.55%
Compound: CC(=O)c1ccc(-c2cc(C(=O)c3ccc(C(F)(F)F)cc3)n3ccccc23)cc1 [Compound 42]

From US20230390319A1, “INTERFERON GENE STIMULATOR COMPOSITION COMPRISING INDOLIZINE DERIVATIVE AS ACTIVE INGREDIENT” (AJOU UNIVERSITY INDUSTRY-ACADEMIC COOPERATION FOUNDATION, priority 2020, published 2023)
